Source: the supplement of paper PMC10733146

Columns and labels:
Test in all cases: viability relative to DMSO control (fraction); higher = less drug effect (more viable cells)
Conditions in all cases: 48 h
[1] = compound: OCc1ccc(-c2ccc(-c3ccc(CO)s3)o2)s1
Outline: (§1)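 Viability was measured as CellTiter-Glo luminescence relative to the median of 16 inner DMSO wells. Primary mononuclear tumour cells, fresh or cryopreserved, were Ficoll-isolated from blood or bone marrow or taken from processed lymph node. They were seeded at 4 × 10^4 cells per well into 384-well plates holding pre-plated compounds at five concentrations, one well each, and kept in RPMI-1640 with penicillin/streptomycin, L-glutamine and human serum at 37 °C and 5% CO2 for 48 h.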

Nilotinib = compound: Cc1cn(-c2cc(NC(=O)c3ccc(C)c(Nc4nccc(-c5cccnc5)n4)c3)cc(C(F)(F)F)c2)cn1 [Nilotinib]
Outline: as §1

Panobinostat = compound: Cc1[nH]c2ccccc2c1CCNCc1ccc(/C=C/C(=O)NO)cc1 [Panobinostat]
Outline: as §1

Pacritinib = compound: C1=N/C2=N/c3ccc(OCCN4CCCC4)c(c3)COC/C=C/COCc3cccc(c3)C(=C1)N2 [Pacritinib]
Outline: as §1

Iniparib = compound: NC(=O)c1ccc(I)c([N+](=O)[O-])c1 [Iniparib]
Outline: as §1

Ribociclib = compound: CN(C)C(=O)c1cc2cnc(Nc3ccc(N4CCNCC4)cn3)nc2n1C1CCCC1 [Ribociclib]
Outline: as §1

Nelarabine = compound: COc1nc(N)nc2c1ncn2[C@@H]1O[C@H](CO)[C@@H](O)[C@@H]1O [Nelarabine]
Outline: as §1

Idarubicin = compound: CC(=O)[C@]1(O)Cc2c(O)c3c(c(O)c2[C@@H](O[C@H]2C[C@H](N)[C@H](O)[C@H](C)O2)C1)C(=O)c1ccccc1C3=O [Idarubicin]
Outline: as §1

AZD7762 = compound: NC(=O)Nc1cc(-c2cccc(F)c2)sc1C(=O)N[C@H]1CCCNC1 [AZD7762]
Outline: as §1

Bortezomib = compound: CC(C)C[C@H](NC(=O)[C@H](Cc1ccccc1)NC(=O)c1cnccn1)B(O)O [Bortezomib]
Outline: as §1

Vemurafenib = compound: CCCS(=O)(=O)Nc1ccc(F)c(C(=O)c2c[nH]c3ncc(-c4ccc(Cl)cc4)cc23)c1F [Vemurafenib]
Outline: as §1

[2] = compound: CC(C)(C)OC(=O)Nc1ccc(-c2cc(C(=O)NCCCCCCC(=O)NO)no2)cc1
Outline: as §1

Birinapant = compound: CC[C@H](NC(=O)[C@H](C)NC)C(=O)N1C[C@@H](O)C[C@H]1Cc1c(-c2[nH]c3cc(F)ccc3c2C[C@@H]2C[C@H](O)CN2C(=O)[C@H](CC)NC(=O)[C@H](C)NC)[nH]c2cc(F)ccc12 [Birinapant]
Outline: as §1

Imatinib = compound: Cc1ccc(NC(=O)c2ccc(CN3CCN(C)CC3)cc2)cc1Nc1nccc(-c2cccnc2)n1 [Imatinib]
Outline: as §1

Pralatrexate = compound: C#CCC(Cc1cnc2nc(N)nc(N)c2n1)c1ccc(C(=O)N[C@@H](CCC(=O)O)C(=O)O)cc1 [Pralatrexate]
Outline: as §1

## primary FL patient cells (S087)
[1]; 0.024 µM
  viability: 0.941
[1]; 0.12 µM
  viability: 0.913
[1]; 0.6 µM
  viability: 0.927
[1]; 3 µM
  viability: 0.888
[1]; 15 µM
  viability: 0.487
Nilotinib; 0.016 µM
  viability: 0.964
Nilotinib; 0.08 µM
  viability: 1.07
Nilotinib; 0.4 µM
  viability: 1.03
Nilotinib; 2 µM
  viability: 1.05
Nilotinib; 10 µM
  viability: 1.01
Panobinostat; 0.00064 µM
  viability: 0.965
Panobinostat; 0.0032 µM
  viability: 0.928
Panobinostat; 0.016 µM
  viability: 0.748
Panobinostat; 0.08 µM
  viability: 0.602
Panobinostat; 0.4 µM
  viability: 0.555
Pacritinib; 0.024 µM
  viability: 1.01
Pacritinib; 0.12 µM
  viability: 1.01
Pacritinib; 0.6 µM
  viability: 0.853
Pacritinib; 3 µM
  viability: 0.698
Pacritinib; 15 µM
  viability: 0.0383
Iniparib; 0.024 µM
  viability: 1.05
Iniparib; 0.12 µM
  viability: 1.03
Iniparib; 0.6 µM
  viability: 1.03
Iniparib; 3 µM
  viability: 1.03
Iniparib; 15 µM
  viability: 0.94
Ribociclib; 0.024 µM
  viability: 0.975
Ribociclib; 0.12 µM
  viability: 0.918
Ribociclib; 0.6 µM
  viability: 0.946
Ribociclib; 3 µM
  viability: 0.916
Ribociclib; 15 µM
  viability: 0.743
Nelarabine; 0.024 µM
  viability: 0.975
Nelarabine; 0.12 µM
  viability: 0.929
Nelarabine; 0.6 µM
  viability: 0.891
Nelarabine; 3 µM
  viability: 0.818
Nelarabine; 15 µM
  viability: 0.745
Idarubicin; 0.024 µM
  viability: 0.829
Idarubicin; 0.12 µM
  viability: 0.71
Idarubicin; 0.6 µM
  viability: 0.489
Idarubicin; 3 µM
  viability: 0.591
Idarubicin; 15 µM
  viability: 0.0467
AZD7762; 0.024 µM
  viability: 0.719
AZD7762; 0.12 µM
  viability: 0.741
AZD7762; 0.6 µM
  viability: 0.768
AZD7762; 3 µM
  viability: 0.812
AZD7762; 15 µM
  viability: 0.772
Bortezomib; 0.008 µM
  viability: 0.879
Bortezomib; 0.04 µM
  viability: 0.965
Bortezomib; 0.2 µM
  viability: 0.931
Bortezomib; 1 µM
  viability: 0.998
Bortezomib; 5 µM
  viability: 0.901
Vemurafenib; 0.024 µM
  viability: 1.01
Vemurafenib; 0.12 µM
  viability: 1.03
Vemurafenib; 0.6 µM
  viability: 0.974
Vemurafenib; 3 µM
  viability: 0.999
Vemurafenib; 15 µM
  viability: 1.04
[2]; 0.024 µM
  viability: 0.983
[2]; 0.12 µM
  viability: 0.894
[2]; 0.6 µM
  viability: 0.838
[2]; 3 µM
  viability: 0.723
[2]; 15 µM
  viability: 0.466
Birinapant; 0.0008 µM
  viability: 0.895
Birinapant; 0.004 µM
  viability: 0.918
Birinapant; 0.02 µM
  viability: 0.927
Birinapant; 0.1 µM
  viability: 0.907
Birinapant; 0.5 µM
  viability: 0.892
Imatinib; 0.016 µM
  viability: 0.983
Imatinib; 0.08 µM
  viability: 1.02
Imatinib; 0.4 µM
  viability: 1.04
Imatinib; 2 µM
  viability: 0.999
Imatinib; 10 µM
  viability: 0.852
Pralatrexate; 0.024 µM
  viability: 1.01
Pralatrexate; 0.12 µM
  viability: 0.975
Pralatrexate; 0.6 µM
  viability: 0.985
Pralatrexate; 3 µM
  viability: 1.07
Pralatrexate; 15 µM
  viability: 0.989

## primary AML patient cells (S012)
[1]; 0.024 µM
  viability: 1.12
[1]; 0.12 µM
  viability: 1.01
[1]; 0.6 µM
  viability: 0.859
[1]; 3 µM
  viability: 0.601
[1]; 15 µM
  viability: 0.372
Nilotinib; 0.016 µM
  viability: 1.01
Nilotinib; 0.08 µM
  viability: 1.03
Nilotinib; 0.4 µM
  viability: 1.03
Nilotinib; 2 µM
  viability: 1.06
Nilotinib; 10 µM
  viability: 1.09
Panobinostat; 0.00064 µM
  viability: 1
Panobinostat; 0.0032 µM
  viability: 1.03
Panobinostat; 0.016 µM
  viability: 0.662
Panobinostat; 0.08 µM
  viability: 0.0941
Panobinostat; 0.4 µM
  viability: 0.0613
Pacritinib; 0.024 µM
  viability: 1.07
Pacritinib; 0.12 µM
  viability: 1.06
Pacritinib; 0.6 µM
  viability: 1.04
Pacritinib; 3 µM
  viability: 0.901
Pacritinib; 15 µM
  viability: 0.0606
Iniparib; 0.024 µM
  viability: 0.993
Iniparib; 0.12 µM
  viability: 1.08
Iniparib; 0.6 µM
  viability: 1.09
Iniparib; 3 µM
  viability: 1.04
Iniparib; 15 µM
  viability: 0.969
Ribociclib; 0.024 µM
  viability: 1.11
Ribociclib; 0.12 µM
  viability: 1.07
Ribociclib; 0.6 µM
  viability: 1.17
Ribociclib; 3 µM
  viability: 1.05
Ribociclib; 15 µM
  viability: 0.861
Nelarabine; 0.024 µM
  viability: 1.01
Nelarabine; 0.12 µM
  viability: 0.966
Nelarabine; 0.6 µM
  viability: 0.993
Nelarabine; 3 µM
  viability: 0.951
Nelarabine; 15 µM
  viability: 1
Idarubicin; 0.024 µM
  viability: 0.955
Idarubicin; 0.12 µM
  viability: 0.876
Idarubicin; 0.6 µM
  viability: 0.746
Idarubicin; 3 µM
  viability: 0.0405
Idarubicin; 15 µM
  viability: 0.0381
AZD7762; 0.024 µM
  viability: 1
AZD7762; 0.12 µM
  viability: 1.01
AZD7762; 0.6 µM
  viability: 0.972
AZD7762; 3 µM
  viability: 0.889
AZD7762; 15 µM
  viability: 0.287
Bortezomib; 0.008 µM
  viability: 1.08
Bortezomib; 0.04 µM
  viability: 1.09
Bortezomib; 0.2 µM
  viability: 1.01
Bortezomib; 1 µM
  viability: 1.04
Bortezomib; 5 µM
  viability: 0.925
Vemurafenib; 0.024 µM
  viability: 0.873
Vemurafenib; 0.12 µM
  viability: 1.02
Vemurafenib; 0.6 µM
  viability: 0.889
Vemurafenib; 3 µM
  viability: 1.04
Vemurafenib; 15 µM
  viability: 1.12
[2]; 0.024 µM
  viability: 1
[2]; 0.12 µM
  viability: 1.04
[2]; 0.6 µM
  viability: 0.964
[2]; 3 µM
  viability: 0.432
[2]; 15 µM
  viability: 0.0462
Birinapant; 0.0008 µM
  viability: 0.942
Birinapant; 0.004 µM
  viability: 0.978
Birinapant; 0.02 µM
  viability: 0.907
Birinapant; 0.1 µM
  viability: 0.771
Birinapant; 0.5 µM
  viability: 0.519
Imatinib; 0.016 µM
  viability: 1.1
Imatinib; 0.08 µM
  viability: 0.988
Imatinib; 0.4 µM
  viability: 0.995
Imatinib; 2 µM
  viability: 0.982
Imatinib; 10 µM
  viability: 1
Pralatrexate; 0.024 µM
  viability: 1.11
Pralatrexate; 0.12 µM
  viability: 0.816
Pralatrexate; 0.6 µM
  viability: 0.787
Pralatrexate; 3 µM
  viability: 0.912
Pralatrexate; 15 µM
  viability: 0.752
